Experimental data from article PMC5702336, “Critical Role of Hepatic Cyp450s in the Testis-Specific Toxicity of (5R)-5-Hydroxytriptolide in C57BL/6 Mice” (Frontiers in Pharmacology, 2017).
Entries after “also recorded” stand apart in the source; their conditions may differ.

How the values were obtained:
rat liver microsomes = assay: Chemical inhibition study of LLDT-8 metabolism with selective CYP inhibitors; assay type: in vitro ADME; details: LLDT-8 2 μM, 0.5 and 1 h, residual LLDT-8 by LC-MS/MS
Experimental: The chemical inhibition assay was performed as previously reported (Li et al., [2008]). A 400 μl typical incubation mixture contained 0.2 mg rat liver microsomes (20 mg/ml, Cat. No: LM-DS-02M, Lot. No: BDVH, Research Institute for liver Diseases, Shanghai, China), 2 μM LLDT-8, 5 mM MgCl2, 1 mM NADPH (Cat. No: 10107824001, Lot. No: 20595625, Sigma, USA) and selective inhibitors of each CYP isoforms in a 100 mM phosphate buffer (pH 7.4). The inhibitors used were as follows: quercetin (2 μM) for CYP1A and CYP2C8, 8-methoxypsoralen (2.5 μM) for CYP2A6, sulfaphenazole (10 μM) for CYP2C9, omeprazole (20 μM) for CYP2C19, quinidine (10 μM) for CYP2D6, clomethiazole (50 μM) for CYP2E1, ketoconazole (1 μM) for CYP3A4 and aminobenzotriazole (50 μM, a broad CYP inhibitor) (Tsyrlov et al., [1994]; Li et al., [2008]). After incubation for 0, 0.5, and 1 h, 100 μl supernatant was collected and quenched by the addition of 100 μl of ice-cold acetonitrile. The mixtures were then centrifuged for 10 min at 20,000 × g. An aliquot of the supernatant was analyzed by LC-MS/MS to monitor the residual LLDT-8 without extraction.

mice testes = assay: Testicular toxicity comparison between triptolide and LLDT-8 (15 days by gavage, H&E); assay type: in vivo, mouse; details: 0.25 mg/kg and 0.5 mg/kg by gavage for 15 days
Experimental: For toxicity experiments, mice (n = 3 for each group) were treated with tritpilide (0.125, 0.25, 0.5mg/kg), LLDT-8 (0.125, 0.25, 0.5mg/kg) consecutively administered by gavage for 15 days. The control group received saline. Mice were sacrificed on the 15th day post-administration and blood, liver, kidney, spleen, testis and epididymis were collected. The main lobe of liver, kidney, spleen and epididymis were fixed in 10% neutral buffered formalin for histological examination, the left testicle was fixed in Davidson’s buffer for 16 hours followed by 10% neutral buffered formalin. Tissue sections were stained with hematoxylin and eosin (H&E). Remaining tissues were stored at -80 °C for RNA and protein extraction.
Supplementary Figure S1 Comparison of testicular toxicity between triptolide(TL) and LLDT-8. Mice (n=3) were weighted before sacrificed on the 15th day post-administration of triptolide, LLDT-8 or saline. The testes were collected and weighted. […] (G-H) Comparison of epididymis weight between triptolide and LLDT-8. Significant difference was determined by one-way Anova, mean ± SD. * p<0.05, *** p<0.001 vs Saline group. # p<0.05, ## p<0.01, ### p<0.001 vs T8 group at the same dosage.

With `Nn1nnc2ccccc21` [aminobenzotriazole] the “effect of CYP inhibitor on the metabolism of LLDT-8” value (from here on “effect of CYP inhibitor”) (rat liver microsomes) was “inhibited”.

For `Cc1ncsc1CCCl` [clomethiazole], the “effect of CYP inhibitor” value (rat liver microsomes) was “inhibited; also recorded: seems to completely inhibit”.

In the case of `CC(=O)N1CCN(c2ccc(OCC3COC(Cn4ccnc4)(c4ccc(Cl)cc4Cl)O3)cc2)CC1` (stereo not drawn) [ketoconazole], the “effect of CYP inhibitor” value (rat liver microsomes) is reported as “inhibited”.

For `COc1ccc2[nH]c([S+]([O-])Cc3ncc(C)c(OC)c3C)nc2c1` (stereo not drawn) [omeprazole], the “effect of CYP inhibitor” value (rat liver microsomes) was “inhibited”.

With `C=C[C@H]1C[N@@]2CC[C@H]1C[C@@H]2[C@@H](O)c1ccnc2ccc(OC)cc12` [quinidine] the “effect of CYP inhibitor” value (rat liver microsomes) was “inhibited”.

For `CC(C)[C@]12O[C@H]1[C@@H]1O[C@]13[C@]1(O[C@H]1C[C@H]1C4=C(CC[C@@]13C)C(=O)OC4)[C@@H]2O` [triptolide], the “testis morphology (H&E)” value (mice testes) was “induced severe testicular injury”.
